Assay results: PubChem BioAssay AID2823 (Broad Institute, 2010)
Active and inactive are the calls of the source. No rule for the calls is given here.

These compounds were tested against RanGTP-importin-beta complex (human Ran / KPNB1) (assay: disruptors of RanGTP/KPNB1 binding – biochemical, FRET, CFP/YFP, cell-free homogeneous, confirmation (AID 2823)). Conditions: CFP-Ran/YFP-importin-beta FRET ratio.

Row | SMILES | IC50
1 | Oc1ccc(/C=N/Nc2ccc3ccccc3c2)c(O)c1 | > 50 µM (inactive)
2 | CCOc1ccc(C)cc1S(=O)(=O)Nc1ccc(Cl)cn1 | > 50 µM (inactive)
3 | CS(=O)(=O)N(CC(=O)NCCSCc1ccco1)c1ccc(Cl)cc1 | > 50 µM (inactive)
4 | CCOC(=O)N1CCN(c2cc(=O)n(Cc3ccc(F)cc3)c(=O)[nH]2)CC1 | > 50 µM (inactive)
5 | CCOC(=O)c1sc(NC(=O)Nc2ccc(F)cc2)nc1C | > 50 µM (inactive)
6 | CCCc1cc(=O)oc2c(CN3CCCC3)c(O)c(Cl)cc12 | 27.1 µM
7 | COC(=O)C1=CN(CC2CCCO2)C=C(C(=O)OC)C1c1cccc(O)c1 (configuration not stated) | 14.1 µM
8 | CCn1nc(NC(=O)c2ccncc2)c2cc3ccc(C)cc3nc21 | 46.4 µM
9 | COc1ccccc1N=C(C)C1=C(O)CC(c2ccccc2)CC1=O (configuration not stated) | > 50 µM (inactive)
10 | CCc1c(C)c2cc(Cl)c(O)c(CN(CC)CC)c2oc1=O | 22 µM
11 | O=C(/C=C/c1cccs1)Nc1ccc([N+](=O)[O-])cc1 | > 50 µM (inactive)
12 | COC(=O)CCC(=O)OC1(C)C(=O)C=C2C=C(C3CC3)N(Cc3ccc(OC)cc3)C=C2C1=O (configuration not stated) | 26.7 µM
13 | COC(=O)C1=CN(C2CC2)C=C(C(=O)OC)C1c1ccc(C(F)(F)F)cc1 | 30.8 µM
14 | Cc1cccc(N2CCN(C(=O)C3COc4ccccc4O3)CC2)c1C (configuration not stated) | > 50 µM (inactive)
15 | COC(=O)c1cc(C(=O)OC)[nH]n1 | > 50 µM (inactive)
16 | Nc1ccccc1C(=O)NNc1c2ccccc2nc2ccccc12 | > 50 µM (inactive)
17 | COc1cc2c(cc1NC(=S)Nc1cccc3ccccc13)oc1ccccc12 | > 50 µM (inactive)
18 | N#Cc1c(N)n(CCNC(=O)c2ccc(Cl)cc2)c2nc3ccccc3nc12 | 7.21 µM
19 | OCCNc1c2ccccc2nc2ccccc12 | 3.94 µM
20 | COc1ccc2cc(C(C)=O)c(=O)oc2c1 | 32.2 µM
21 | CC(=O)Cc1nsc(NC(=O)c2ccc(-c3cccc(C(F)(F)F)c3)o2)n1 | > 50 µM (inactive)
22 | NS(=O)(=O)c1ccc(CCNC(=O)C2CCN(S(=O)(=O)c3ccc(Br)s3)CC2)cc1 | > 50 µM (inactive)
23 | COCCOC(=O)C1=C(C)NC(=O)NC1c1cccc2ccccc12 (configuration not stated) | > 50 µM (inactive)
24 | CC(C)Cc1ccc(CN2CCC(n3nccc3NC(=O)C3CCCC3)CC2)cc1 | > 50 µM (inactive)
25 | O=C1CCCN2N=C(SCC(=O)N3N=C(c4ccc(Br)cc4)CC3c3ccc(F)cc3)SC2=N1 (configuration not stated) | > 50 µM (inactive)
26 | COc1ccc(-n2c(N)c(C(=O)NCc3ccco3)c3nc4ccccc4nc32)cc1OC | 45.6 µM

Row | SMILES | IC50
27 | CSc1ncccc1C(=O)OCC(=O)c1cc2ccccc2o1 | > 50 µM (inactive)
28 | CSc1sc(C)cc1C1C(C#N)=C(N)N(c2cccnc2)C2=C1C(=O)CCC2 (configuration not stated) | 48 µM
29 | O=C(O)c1c2c(nc3ccccc13)/C(=C/c1ccc(OC(F)F)cc1)CCC2 | > 50 µM (inactive)
30 | CC12OC1C1(O)CCCC1=CC2=O (configuration not stated) | > 50 µM (inactive)
31 | Nc1c(C(=O)OC2CCCCC2)c2nc3ccccc3nc2n1CC1CCCO1 (configuration not stated) | 27.1 µM
32 | N#CC1=C(N)Oc2cc3c(cc2C1c1ccc(Cl)cc1)OCO3 (configuration not stated) | > 50 µM (inactive)
33 | CCOC(=O)c1c(N2C(=O)Nc3ccccc3N2O)sc2c1CCCC2 | > 50 µM (inactive)
34 | O=C(CCCO)NNc1c2ccccc2nc2ccccc12 | > 50 µM (inactive)
35 | c1ccc2c(c1)nc(NCC1CCCO1)c1nnnn12 (configuration not stated) | 30.3 µM
36 | Cc1c(S(=O)(=O)N2CCCC(C(=O)O)C2)cnn1C (configuration not stated) | > 50 µM (inactive)
37 | COCCNC(=O)c1c(NC(=O)c2ccco2)n(Cc2ccccc2)c2nc3ccccc3nc12 | 1.91 µM
38 | CCN(CC(=O)Nc1cccc(S(=O)(=O)N2CCCCC2)c1)Cc1ccccc1 | > 50 µM (inactive)
39 | Cc1ccc2cc(C#N)c(N3CCCN(C(=O)C4CCCO4)CC3)nc2c1 (configuration not stated) | 20.5 µM
40 | O=[N+]([O-])c1cccc(-c2n[nH]c(=S)n2-c2ccc(Br)cc2)c1 | > 50 µM (inactive)
41 | Cc1cccc(NC(=O)c2cc(S(=O)(=O)N(C)c3ccc(F)cc3)ccc2Cl)n1 | > 50 µM (inactive)
42 | Cc1cccc(CN2CCc3c(OCC(=O)N4CCCc5ccccc54)cccc3C2=O)c1 | > 50 µM (inactive)
43 | Cc1sc(NC(=O)c2oc3ccccc3c2C)c(C#N)c1C | > 50 µM (inactive)
44 | O=C(c1ccccc1)c1cc2ccc(O)cc2oc1=O | 13 µM
45 | Cc1noc(C)c1C(=O)Nc1sc2c(c1C(N)=O)CCC2 | > 50 µM (inactive)
46 | CN1CC2=CC(O)CC3Oc4c(O)ccc(c4[C@]23C)C1 (some centres not stated) | > 50 µM (inactive)
47 | COc1ccc(OC)c(Nc2c3ccccc3nc3ccccc23)c1 | > 50 µM (inactive)
48 | COc1ccc(NC(=O)/C(C#N)=C\c2ccc(N3CCOCC3)o2)cc1 | > 50 µM (inactive)
49 | NC(=O)N/N=C/c1ccccc1OC(=O)c1cc2ccccc2oc1=O | > 50 µM (inactive)
50 | O=C1C=C(Nc2ccc(Cl)cc2Cl)CC(c2ccco2)C1 (configuration not stated) | > 50 µM (inactive)
51 | CN1CCN(C(=O)c2cc3nc(-c4ccccc4)cc(C(F)(F)F)n3n2)CC1 | > 50 µM (inactive)
52 | N=c1c(S(=O)(=O)c2ccc(Br)cc2)cc2c(=O)n3ccccc3nc2n1C1CCCCC1 | > 50 µM (inactive)
